In US9795140B2, “Molecules having pesticidal utility, and intermediates, compositions, and processes, related thereto” (priority 2015, dated 2017):

Legend:
Format in all cases: in vivo
[1] = system: Beet Armyworm (Spodoptera exigua, LAPHEG); assay: Bioassay on Beet Armyworm (BAW), 128-well diet tray assay; settings: 168 h, 50 μg/cm^2 on artificial diet, second instar larvae, 25° C., five to seven days, average of eight wells, read-out: BAW % Control (or Mortality) rating
Summary of the method: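 Second-instar larvae, one to five per well, placed on artificial diet surface-treated with 50 μg/cm^2 compound applied in 90:10 acetone-water and dried. Held 5–7 days at 25° C., 14:10 light-dark. Percent mortality recorded per well and averaged over eight wells.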

[2] = system: Cabbage Looper (Trichoplusia ni, TRIPNI); assay: Bioassay on Cabbage Looper (CL), 128-well diet tray assay; settings: 168 h, 50 μg/cm^2 on artificial diet, second instar larvae, 25° C., five to seven days, average of eight wells, read-out: CL % Control (or Mortality) rating
Summary of the method: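 Second-instar T. ni larvae (one to five per well) were placed on artificial diet treated with 50 μg/cm^2 compound, applied in 90:10 acetone-water and dried. Trays were held five to seven days at 25 °C under 14:10 light-dark. Percent mortality per well was averaged over eight wells.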

[3] = system: Yellow Fever Mosquito (Aedes aegypti, AEDSAE); assay: Bioassay on Yellow Fever Mosquito (YFM) larvae, 96-well plate; settings: about 1 day-old larvae, room temperature, 3 days, scored on mortality
Summary of the method: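 Compound stocks at 4000 ppm in DMSO were diluted with 90:10 water/acetone, and 15 μL aliquots were dispensed into six replicate plates. About 1-day-old larvae in liver-powder water were added per well. Plates were covered and held at room temperature for 3 days before each well was scored for mortality.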

Structure (SMILES)	mortality at 50 µg/cm2 [1] [%]	mortality at 50 µg/cm2 [2] [%]	YFM % Control (or Mortality) rating [3]
O=C(NCc1cccnc1)c1cc(NC(=O)[C@H]2[C@H](c3cc(Cl)c(Cl)c(Cl)c3)C2(Cl)Cl)ccc1Cl (relative stereo) [F7, trans-2-Chloro-5-(2,2-dichloro-3-(3,4,5-trichlorophenyl)cyclopropane-1-carboxamido)-N-(pyridin-3-ylmethyl)benzamide]	50 to 100	50 to 100	A (80-100)
CCN(C)C(=O)c1cc(NC(=O)[C@H]2[C@H](c3cc(Cl)cc(Cl)c3)C2(Cl)Cl)ccc1Cl (relative stereo) [F63, trans-2-Chloro-5-(2,2-dichloro-3-(3,5-dichlorophenyl)cyclopropane-1-carboxamido)-N-ethyl-N-methylbenzamide]	50 to 100	50 to 100	D (No activity noticed in this bioassay)
CCCNC(=O)c1cc(NC(=O)[C@H]2[C@H](c3cc(Cl)cc(Cl)c3)C2(Cl)Cl)cc(Cl)c1Cl (relative stereo) [F95, trans-2,3-Dichloro-5-(2,2-dichloro-3-(3,5-dichlorophenyl)cyclopropane-1-carboxamido)-N-propylbenzamide]	50 to 100	50 to 100	A (80-100)
O=C(NCC(F)(F)F)c1cc(NC(=O)[C@H]2[C@H](c3ccc(Cl)c(Br)c3)C2(Cl)Cl)ccc1Cl (relative stereo) [F109, 5-(trans-3-(3-Bromo-4-chlorophenyl)-2,2-dichlorocyclopropane-1-carboxamido)-2-chloro-N-(2,2,2-trifluoroethyl)benzamide]	50 to 100	50 to 100	A (80-100)
COCCN(C)C(=O)c1cc(NC(=O)[C@H]2[C@H](c3cc(Cl)cc(Cl)c3)C2(Cl)Cl)ccc1Cl (relative stereo) [F67, trans-2-Chloro-5-(2,2-dichloro-3-(3,5-dichlorophenyl)cyclopropane-1-carboxamido)-N-(2-methoxyethyl)-N-methylbenzamide]	50 to 100	50 to 100	D (No activity noticed in this bioassay)
O=C(NCC(F)(F)F)c1cc(NC(=O)[C@H]2[C@H](c3ccc(C(F)F)c(F)c3)C2(Cl)Cl)ccc1Cl (relative stereo) [F133, 2-Chloro-5-(trans-2,2-dichloro-3-(4-(difluoromethyl)-3-fluorophenyl)cyclopropane-1-carboxamido)-N-(2,2,2-trifluoroethyl)benzamide]	50 to 100	50 to 100	A (80-100)
CCNC(=O)c1cc(NC(=O)[C@H]2[C@H](c3ccc(F)c(Cl)c3)C2(Cl)Cl)ccc1Cl (relative stereo) [F103, trans-2-Chloro-5-(2,2-dichloro-3-(3-chloro-4-fluorophenyl)cyclopropane-1-carboxamido)-N-ethylbenzamide]	50 to 100	50 to 100	A (80-100)
O=C(NCC(F)(F)F)c1cc(NC(=O)[C@H]2[C@H](c3ccc(Br)c(F)c3)C2(Cl)Cl)ccc1Cl (relative stereo) [F113, 5-(trans-3-(4-Bromo-3-fluorophenyl)-2,2-dichlorocyclopropane-1-carboxamido)-2-chloro-N-(2,2,2-trifluoroethyl)benzamide]	50 to 100	50 to 100	A (80-100)
O=C(NCC(F)(F)F)c1cc(NC(=O)[C@H]2[C@H](c3ccc(C(F)(F)F)c(F)c3)C2(Cl)Cl)ccc1Cl (relative stereo) [F112, 2-Chloro-5-(trans-2,2-dichloro-3-(3-fluoro-4-(trifluoromethyl)phenyl)cyclopropane-1-carboxamido)-N-(2,2,2-trifluoroethyl)benzamide]	50 to 100	50 to 100	A (80-100)
